Drawing on a melting point compilation (Tetko et al.; mined from patent text by program, amines drawn as free bases though some values may be those of a salt), this text covers melting point for 35 compounds.

Usually melting point stands for the temperature, or range, at which the solid turns liquid. The compound `COC(=O)c1cnc(Cl)c(Br)c1` registered a melting point of 78 to 79 °C.
Compound `N#Cc1ccc(Oc2ccccc2N)cc1C#N` came in with a melting point of 118 °C.
The compound `Cc1noc(NS(=O)(=O)c2ccccc2-c2ccc(CC(C)C)cc2CNC=O)c1C` came in with a melting point of 78 to 83 °C.
In turn, `Cc1cc(-c2ccc(OCc3ccncc3)cc2)cc2ccc(=O)[nH]c12` showed a melting point of 270 to 274 °C.
Regarding `CCOC(=O)CC(=O)c1cc(F)c(F)c(Br)c1F`, the melting point is 85 to 88 °C.
Compound `O=C(O)CCCCCCCNC(=O)c1ccccc1NC(=O)c1ccccc1O` registered a melting point of 124 to 125 °C.
The value for `COc1ccc2c(c1)CCC1C2CCC2(C)C1CCC2N(C=O)CCC(C)C` (stereo not given) was 106 to 107 °C; that for `CC(=O)c1ccccc1Nc1c(Cl)ccc(C)c1Cl` was 130 to 132 °C; that for `O=c1[nH]c2c(Cl)cccc2c(=O)n1CCCN1CC=C(c2cccc(Cl)c2)CC1` was 210 to 215 °C.
Take `Cc1nc2cc3c(cc2o1)C1(CO3)C(=O)N(C(c2ccccc2)c2ccccc2)c2ccccc21` (stereo not given): the melting point fell in the range of 240 to 242 °C.
As to `CCCCc1oc2ccccc2c1C(=O)c1ccc(OCCN(CC)CC)c(I)c1`, the melting point is 100 to 102 °C.
In the case of `C[C@H]1[C@@H](C#N)CCN1c1ccc(C#N)c2ccccc12`, the melting point was in the range of 143 to 145 °C.
Compound `CCCCCC1CCc2cc(C(=O)Oc3ccc(CCCC)cc3)ccc2C1` (stereo not given) gave a melting point of 48.1 °C.
On to `N#Cc1cccc(NC(=O)CN2CCC(Cc3ccc(F)cc3)CC2)c1`, for which the melting point was in the range of 101 to 103 °C.
With `CCNc1ncccc1C(=O)Nc1c(C)ccnc1Cl`, the melting point is 122 to 124 °C.
`N#Cc1ccc2oc(CCc3ccc(C(=O)Nc4cnccn4)cc3)cc2c1`: the melting point is 183 to 185 °C.
In the case of `CCOC(=O)c1cn(-c2ccc(F)c(NC(C)(C)C)n2)c2c(Br)c(F)c(F)cc2c1=O`, the melting point is 192 to 195 °C.
The compound `COc1ccc2c(c1)c(-c1cc3cccnc3[nH]1)cn2C` registered a melting point of 226 to 227 °C.
The compound `O=C(O)CCCc1ccc(C(Cc2ccccc2)NS(=O)(=O)c2ccc(Cl)cc2)cc1` (stereo not given) registered a melting point of 152 to 153 °C.
Consider `O=[N+]([O-])c1ccc2oc(-c3ccc(Cl)cc3)nc2c1`, for which the melting point was 217 to 218 °C.
The compound `Cc1nc2nc(Cl)c(Cl)nc2s1` showed a melting point of 58 to 60 °C.
For the compound `CCOC(=O)C(=O)NS(=O)(=O)Cc1nc(-c2ccc(Cl)c(Cl)c2)cs1`, the melting point lay in the range of 180 to 182 °C.
Regarding `O=C(Nc1ccc2cc(CN3CCCC3)ccc2c1)c1ccc(-c2ccc(Cl)cc2)cc1`, the melting point fell in the range of 214 to 217 °C.
The value for `O=c1c2c(oc3c1nnn3Cc1ccccc1)CCS2` was 157 to 160 °C; that for `COc1cc(N)c(Cl)cc1C(=O)NN1CCN(Cc2cccs2)CC1` was 225 to 226 °C; that for `CCn1ncc2c1ncc1c(OC(C)C)nc3cc(C)nn3c12` was 129 to 130 °C.
The compound `Cc1ccc(-n2c(-c3cc(-c4ccccc4)c(N4CCOCC4)s3)nc3ccccc3c2=O)cc1` gave a melting point of 207 to 209 °C.
For the compound `OC1(c2ccccc2)c2ccccc2C2=NC3CCCCC3N21` (stereo not given), the melting point was in the range of 176 to 178 °C.
The value for `Cc1nc2ccccc2cc1NC(=O)N1CCN(c2cccc3ccccc23)CC1` was 220 to 222 °C.
The compound `Cc1nc(-n2ccc(O)cc2=O)sc1C(=O)NCCC1CC1` displayed a melting point of 234 to 236 °C.
For `O=S(=O)(Nc1ccc(C2COc3cc(O)c(O)cc3C2)cc1)c1ccccc1` (stereo not given), the melting point fell in the range of 152 to 154 °C.
Regarding `CS(=O)(=O)Nc1ccc(N2CCN(c3cc(N)ccn3)CC2)cc1`, the melting point lay within 225 to 227 °C.
The value for `Cc1oc(C)c(C(=O)OC2CC(C)(C)NC(C)(C)C2)c1C` was 54 to 58 °C; that for `COc1cc(OC)c2c(C)c(CCN3CCN(c4ccccc4O)CC3)c(=O)oc2c1` was 164 to 165 °C.
Turning to `CC(COc1ccc(CC2SC(=O)NC2=O)cc1)NCC(O)COc1ccccc1` (stereo not given), the melting point lay in the range of 64 to 68 °C.
